Patent US12691102B2, “Composition for preventing or treating chronic kidney disease, comprising compound that induces expression of anti-aging gene klotho” (KLOTHO SCIENCES, priority 2021, dated 2026)

Assays:
[1] = tested on: promoter of the human klotho gene; experiment: Luciferase expression experiment, human klotho promoter reporter (1.7 kbp or 240 bp) in RPTEC cells; format: cell-based; details: 5 μM, 24 hours, promoter 1.7 kbp or 240 bp, among Comparative Examples 1 to 4, FIG. 1
Method: (§1) In order to evaluate whether the klotho gene was expressed by the evaluation of luciferase activity, human renal proximal tubule epithelial cells (RPTECs) (ATCC CRL-4031), which are epithelial cells of the proximal tubule of the human kidneys, were purchased from Lonza, USA and used.
(§2) For culturing, a Renal Epithelial Growth Medium (REGM™) Bullet kit, also manufactured by the same Lonza company, was used, and the cells were cultured under conditions of 37° C. and 5% CO2. As a plasmid for luciferase expression, a plasmid in which the promoter site of a human KL (klotho) gene was disposed to regulate the expression of a firefly luciferase gene was used.
The plasmid was incorporated into cells using an X-treme GENE transfection reagent from Roche. The activity of luciferase expressed in cells was measured using a Dual-Luciferase reporter assay system manufactured by Promega. After the cultured cells were treated with each compound at an indicated concentration for 24 hours, the activity of luciferase was measured. It is indirectly shown that the expression of the klotho gene may be increased when the activity of luciferase is high. […]

[2] = tested on: promoter of the human klotho gene; experiment: Luciferase expression experiment, reporter gene pHKP-luc (promoter up to -2.1 kb upstream of human klotho gene) in RPTECs; format: cell-based
Method: as §1, §2
The plasmid was incorporated into cells using an X-treme GENE transfection reagent from Roche. The activity of luciferase expressed in cells was measured using a Dual-Luciferase reporter assay system manufactured by Promega. After the cultured cells were treated with each compound at an indicated concentration for 24 hours, the activity of luciferase was measured. It is indirectly shown that the expression of the klotho gene may be increased when the activity of luciferase is high.
The results of confirming the expression of a reporter gene by treating RPTECs, which are epithelial cells of the proximal tubule of the human kidneys, with Examples 1 to 6 at concentrations of 0.5, 1 and 5 μM and Comparative Example 1 at a concentration of 5 μM and using a reporter gene (pHKP-luc) including a promoter included up to −2.1 kb upstream of the human klotho gene are illustrated in FIGS. 2 and 3.

klotho (KL) gene [3] = experiment: Quantitative evaluation of klotho (KL) gene expression level using real-time PCR in RPTEC cells; format: cell-based, human; details: treated for 6 hours, FIG. 4
Method: For RNA extraction from RPTEC cells, which are epithelial cells of the proximal tubule of the human kidneys, treated with the compounds of Comparative Example 1 and Examples 1 and 2 for 6 hours, an RNeasy kit from Qiagen Inc. was used. The results of preparing cDNA from extracted RNA using a Superscript II kit from Thermo Fisher Scientific, Inc. and performing the quantitative evaluation using Taqman Gene Expression assays from Applied Biosystems as a klotho (KL) gene-specific kit are illustrated in FIG. 4.

klotho (KL) gene [4] = experiment: Quantitative evaluation of klotho (KL) gene expression level using general PCR in RPTEC cells; format: cell-based, human; details: 2.5 μM, 6 hours, FIG. 5
Method: After RPTEC cells, which are epithelial cells of the proximal tubule of the human kidneys, were each treated with the compounds of Examples 7 to 10 at 2.5 μM for 6 hours, RNA was extracted from the cells, and cDNA was prepared from the extracted RNA using a Superscript II kit from Thermo Fisher Scientific, Inc., and then general PCR was performed.
Information on the primers used in the experiment is as follows. • KL-F […] (SEQ ID NO: 1) • KL-R […] (SEQ ID NO: 2) • GAPDH-F […] (SEQ ID NO: 3) • GAPDH-R […] (SEQ ID NO: 4)
The DNA amplified by PCR was confirmed by staining with ethidium bromide after electrophoresis on an agarose gel, and the amounts of DNA in the band were quantitatively compared using the SPEedyQuant program, and are illustrated in FIG. 5.

[5] = tested on: human kidney-2 (HK2) cells; experiment: Toxicity test (EZ-Cytox) in HK2 cells; format: cell-based; details: 12.5 μM or 25 μM, 24 hours, FIG. 6
Method: Cultured human kidney-2 (HK2) cells were treated with Comparative Example 1, Example 2 and Examples 9 to 10 at a concentration of 25 μM or 12.5 μM, and after 24 hours, cytotoxicity was measured using an EZ-Cytox kit.

klotho protein = experiment: Klotho protein expression level in cisplatin-treated HK-2 cells; format: cell-based, human; details: FIG. 7B
Method: As in the protocol in FIG. 7A, a disease model was made by treating HK-2 cells (human renal cells) with cisplatin (20 μM), and then treated with a KS1 compound (Example 10) (3 μM). After 24 hours, the expression degree of the klotho protein was confirmed by obtaining the cells.

[6] = tested on: unilateral ureter obstruction model; experiment: Unilateral ureter obstruction (UUO) model; format: in vivo; details: mice, 20 mg/kg/day into the abdominal cavity
Method: In a unilateral ureter obstruction model, 5-week-old male […] mice were used. After the right ureter was tied with a thread to create a unilateral ureter obstruction model, the KS1 compound (20 mg/kg/day) was injected into the abdominal cavity daily starting 24 hours later. After that, samples were collected by sacrificing the mice on days 7 and 14 and tested (FIG. 8A). H&E staining was performed to investigate changes in the nucleus and cytoplasm in the unilateral ureter obstruction model, and the results are illustrated in FIG. 9. […] In addition, Sirius Red staining was performed to investigate the change according to the progress of fibrosis in the unilateral ureter obstruction model. […] TUNEL staining was performed to investigate the degree of apoptosis in the unilateral ureter obstruction model.

[7] = tested on: chronic kidney disease model; experiment: Chronic kidney disease model (db/db mice, high protein diet); format: in vivo; details: oral gavage daily 2, 10, 50 mg/kg
Source text: For the chronic kidney disease model, 20 db/m mice (10 5-week-old mice, 10 6-week-old mice) and 50 db/db mice (25 5-week-old mice and 25 6-week-old mice) were imported from Jackson Lab, USA, and after the adaptation period, the experiment was started (mouse model number JAX 000642-BKS.Cg-Dock7m+/+Leprdb/j5W/M Wildtype for Dock7m, BKS.Cg-Dock7m+/+Leprdb/j 5W/M Heterozygous for Dock7m). Each group was divided into set1 and set2 due to the large number of mice, with 5-week-old mice as set2, and the experiment was conducted one week later so that all mice were in the experiment from 6 weeks of age. After measuring the body weight, the mice were evenly distributed in each group and fed a normal diet (ND) and a high protein diet (HPD). After 3 weeks on the high protein diet, 2-hour urine samples were collected via a metabolic cage for analysis. […] After 12 weeks of drug administration, mice were sacrificed, and blood and organs were obtained for hematology and tissue analysis. Urine analysis was performed at SCL healthcare center, and blood analysis was performed using I-STAT cartridge (CHEM 8+).
The animals were anesthetized with anesthetic and perfusion-fixed with fixative (Periodate-Lysine-2% paraformaldehyde) through the heart for 8 minutes. Additional fixation was performed at 4° C. for 16 hours or more in the same fixative. After undergoing a dehydration process through an alcohol series, the tissue slides were prepared by embedding in wax and then cutting to 5 μm. After the tissue was hydrated again through the hydration process, it was immersed in a citric acid solution of pH 6 and heated to retrieve the aldehyde-fixed protein. Endogenous peroxidase was then blocked by treatment with 1.7% H2O2 in methanol for 30 minutes, followed by treatment with 0.5% triton X-100 in PBS for 15 minutes to increase the penetration of the antibody. […] Using more than 100 photographs for each group, the expressed areas were quantified using a color image analyzer (TDI Scope Eye version 3.6 for windows; Olympus, Japan) (FIG. 14). […]

[8] = RPTECs, Examples at 0.5, 1 and 5 μM, Comparative Example 1 at 5 μM, FIG. 2

SMILES: O=C(Nc1ccccc1Cl)c1c[nH]c2ccccc12 [Comparative Example 1, N-(2-chlorophenyl)-1H-indole-3-carboxamide]
- luciferase activity (klotho promoter reporter) [1]: the highest

SMILES: O=C(Nc1nc2ccccc2o1)c1ccc([N+](=O)[O-])cc1Cl [Example 1, N-(benzo[d]oxazol-2-yl)-2-chloro-4-nitrobenzamide]
- expression of the reporter gene (pHKP-luc) [2, 8]: at a level similar to that of Comparative Example 1

SMILES: Cc1ccc2oc(Nc3ccc(Cl)c(Cl)c3)nc2c1 [Example 2]
- expression of the reporter gene (pHKP-luc) ([2]; RPTEC cells, 5 μM, FIG. 3): at a level similar to that of Comparative Example 1
- expression of the reporter gene (pHKP-luc) [2, 8]: at a level similar to that of Comparative Example 1
- klotho (KL) gene mRNA expression level (real-time PCR) (klotho (KL) gene [3]): at a level similar to that of Comparative Example 1

SMILES: Fc1ccc(Nc2nc3ccccc3o2)cc1F [Example 10, N-(3,4-difluorophenyl)benzo[d]oxazol-2-amine]
- expression level of the klotho (KL) gene, relative to the level of Comparative Example 1 (klotho (KL) gene [4]): about 10 times
- improvement of toxicity compared to Comparative Example 1 [5]: ≥ 20%
- toxicity (cytotoxicity, EZ-Cytox) [5]: the least toxicity
- expression of the klotho protein (klotho protein; HK-2 cells, cisplatin (20 μM) disease model, then 3 μM compound, 24 hours): increased
- renal hypertrophy (kidney size) ([6]; FIG. 8B): no difference in size
- nuclear and cytoplasmic changes, tissue destruction (H&E staining) ([6]; one-week and two-week samples, FIG. 9): a large reduction in tissue destruction
- klotho protein expression ([6]; one-week sample, FIG. 12): increased
- fibrosis (Sirius Red staining) ([6]; vs UUO model not treated, FIG. 10): fibrosis occurred less
- apoptosis (TUNEL staining) ([6]; vs UUO model not treated, FIG. 11): remarkably reduced
- MMP-9 protein expression level (inflammation marker) ([6]; week 1 and week 2, FIG. 13): remarkably reduced
- expression of klotho protein (immunohistochemistry, kidney) ([7]; 12 weeks, FIG. 14, 15): statistically significantly (p<0.05) increased
- blood urea nitrogen (BUN) ([7]; 12 weeks, FIG. 17): statistically significant (p<0.05) decrease
- microalbumin level in urine (in proportion to creatinine) ([7]; FIG. 16): statistically significant (p<0.05) decrease

SMILES: N.N.[Cl][Pt][Cl] [cisplatin, reference compound]
- expression of the klotho protein (klotho protein; HK-2 cells treated with cisplatin (20 μM) alone): decreased
